Patent US20090186838A1, “Amphotericin Derivatives” (Eidgenössische Technische Hochschule Zürich, priority 2006, published 2009)
In brackets after ≈: the same amount, converted by molar mass.

Experiments:
DSY-294 C. albican CI = experiment: MIC determination in Candida strain DSY-294; type: cell-based, Candida albicans; conditions: Candida albicans
Experimental: (§1) In Vitro Antifungal Activity. MIC values for various strains were determined in accordance with the standard protocol from the National Committee of Clinical Laboratory Standards but using YEPD liquid medium instead of RPMI-1640 medium (National Committee of Clinical Laboratory Standards (Reference Method for Broth Dilution Antifungal Susceptibility Testing of Yeast, M27-A2, Approved Standard-Second Edition, Volume 22, Number 15, 1995). AmB was used as a reference. The strains were cultivated overnight in 5 mL YEPD liquid medium at 30 to 37° C. (30° C. for the strain BY4741; 37° C. for the strain DSY1764) with constant shaking. The saturated cultures were diluted to an ODB600 of 0.1 (3×10P^7 cells/mL). Using 24 wells plate, each well was prepared by adding 1% (12 μL) of DMSO solution of the tested polyene macrolide with 1% (12 μL) yeast cells solution and completed with YEPD (1.176 mL). The plates were sealed with Parafilm and then incubated for 18 to 36 hours at 30 to 37° C. (18 hours at 30° C. for the strain BY4741; 36 hours at 37° C. for the strain DSY1764). The optical density was read at 600 nm using 1.5 mL cuvettes. The MIC value was defined as the drug concentration needed to inhibit growth, less than 5% compared to a drug-free culture.
(§2) MIC values of the polyene macrolides 3, 9 and 10 (Diamine-AmB and its ester and diamide derivative, respectively) in various Candida strains including an AmB-resistant strain C. albicans (DSY1764, with the genotype erg3AΔ::hisG/erg3BΔ::hisG erg11Δ::hisG/erg11Δ::hisG-URA3-hisG) were determined.

DSY-562 C. glabrata CI = experiment: MIC determination in Candida strain DSY-562; type: cell-based; conditions: Nakaseomyces glabratus
Experimental: as §1, §2

CAF2-1 C. albican wt = experiment: MIC determination in Candida strain CAF2-1; type: cell-based, Candida albicans; conditions: Candida albicans
Experimental: as §1, §2

[1] = tested on: DSY-1764 C. albican mutant erg3/11 (AmB-resistant strain); experiment: MIC determination in AmB-resistant Candida strain DSY-1764; type: cell-based, Candida albicans; conditions: Candida albicans, 36 h
Experimental: as §1, §2

Solubility assay = type: physicochemical; conditions: for solubility: PBS buffer, pH 7.2, aqueous buffer, kinetic from dmso stock, read-out: Solubility in water
Experimental: Solubility assay. The solubility assay was performed according to Lipinski, C. A. et al Advances Drug Delivery Reviews 2001, 46, 3-26. Typically, a compound of the invention was dissolved in DMSO at a concentration of 10 μg/μl. The so obtained solution was added in […] at 1 min intervals to 2.5 ml PBS buffer solution pH 7.2. These additions correspond to solubility increments of 5 μg/ml to a top value of 65 μg/ml. A total of 14 additions were made and each time increased UV absorbance from light scattering was measured at 600 nm. The precipitation point was calculated from a bilinear curve fit to the Absorbance (y axis) versus μl of DMSO (x axis) plot.
The solubility of the polyene macrolides of the invention in water was tested following the above described protocol. Clearly, all conjugates were more soluble in water then AmB.

[2] = tested on: DSY-654 C. albican mutant cdr1/2; experiment: MIC determination in Candida strain DSY-654; type: cell-based, Candida albicans; conditions: Candida albicans
Experimental: as §1, §2

[3] = DMSO stock added to PBS buffer solution pH 7.2, precipitation point by light scattering at 600 nm

Compound: C[C@@H]1[C@H](O)[C@@H](C)/C=C/C=C/C=C/C=C/C=C/C=C/C=C/[C@H](O[C@@H]2O[C@H](C)[C@@H](O)[C@H](N(CCCN)CCCN)[C@@H]2O)CC2O[C@](O)(C[C@@H](O)C[C@@H](O)[C@H](O)CC[C@@H](O)C[C@@H](O)CC(=O)O[C@H]1C)C[C@H](O)[C@H]2C(=O)NCCN [compound 10, 16-(N′-(2-Aminoethyl)-carboxamide)-N,N-di-(3-aminopropyl)-AmB]
- MIC (DSY-294 C. albican CI): 1 µM (≈ 1.08 µg/mL)
- MIC (DSY-562 C. glabrata CI): 0.5 µM (≈ 0.54 µg/mL)
- MIC (CAF2-1 C. albican wt): 2 µM (≈ 2.16 µg/mL)
- MIC [1]: 4 µM (≈ 4.32 µg/mL)
- Solubility in water (Solubility assay; DMSO stock added to PBS buffer solution pH 7.2, precipitation point by light scattering at 600 nm, listed as Diamine-Amide 10): 40 µg/mL (≈ 37 µM)
- solubility (Solubility assay; [3]): ≤ 40 µg/mL
- solubility in water compared with AmB (Solubility assay; relative to AmB): four times more soluble

Compound: COC(=O)[C@H]1[C@@H]2C[C@@H](O[C@@H]3O[C@H](C)[C@@H](O)[C@H](N(CCCN)CCCN)[C@@H]3O)/C=C/C=C/C=C/C=C/C=C/C=C/C=C/[C@H](C)[C@@H](O)[C@@H](C)[C@H](C)OC(=O)C[C@H](O)C[C@H](O)CC[C@@H](O)[C@H](O)C[C@H](O)C[C@](O)(C[C@@H]1O)O2 [compound 9, N,N-Di-(3-aminopropyl)-AmB Methyl Ester]
- MIC (DSY-294 C. albican CI): 0.25 µM (≈ 0.263 µg/mL)
- MIC (DSY-562 C. glabrata CI): 0.25 µM (≈ 0.263 µg/mL)
- MIC (CAF2-1 C. albican wt): 0.5 µM (≈ 0.526 µg/mL)
- MIC [2]: 0.25 µM (≈ 0.263 µg/mL)
- MIC [1]: 4 µM (≈ 4.21 µg/mL)
- solubility (Solubility assay; [3]): 22 µg/mL (≈ 20.9 µM)
